EP0244595A2, “Dihydropyridine derivatives, process for their preparation and their use as pharmaceutical compounds” (Byk Gulden Lomberg Chemische Fabrik GmbH, priority 1986, dated 1987)
Structures can show the parent of a compound that is named as a salt. Where two headings read alike, the source gives them in different places.

Test system: genetisch hypertonen Ratten
Test: Antihypertensive effect (systolic blood pressure, tail cuff) in spontaneously hypertensive rats after oral dosing
Format: in vivo, Ratte
Details: Rattus norvegicus; for change in vivo at 10 µmol/kg: 10 µmol/kg p.o. once daily on four consecutive days; for change in vivo at 5 µmol/kg: 5 µmol/kg p.o. once daily on four consecutive days; for change in vivo at 25 µmol/kg: 25 µmol/kg p.o. once daily on four consecutive days
Source text: Die antihypertensive Wirksamkeit der erfindungsgemäßen Verbindungen kann am Modell der spontan hypertonen Ratte nachgewiesen werden.
Zur Bestimmung der antihypertensiven Wirkung werden die unten aufgeführten Verbindungen in den angegebenen Dosen an vier aufeinander folgenden Tagen an je 6 männlichen Ratten (Stamm SHR/N/Ibm/Bm, 250-350 g) mit genetisch bedingtem Hochdruck (systolischer Blutdruck > 180 mmHg) täglich einmal mittels Schlundsonde verabfolgt. Die Messung des Blutdrucks erfolgt jeweils 6 und gegebenenfalls 2 oder 24 Studnen nach Substanzgabe.
Die Blutdruckmessung wird in einer Wärmekammer bei 36°C vorgenommen, um eine bessere Durchblutung der Schwanzarterie zu erreichen. Hierzu werden die Tiere in perforierte Lochblechkäfige verbracht und 20 - 40 Min. nach Beginn der Aufwärmung gemessen. Zur Messung des systolischen arteriellen Drucks wird eine ringförmige Manschette mit aufblasbarer Gummimembran zur Unterbindung der Durchblutung und ein ringförmiger Piezokristallaufnehmer zur Erfassung der Pulswellen auf den Schwanz aufgeschoben. Nach erfolgter Unterbindung des Blutstroms in der Schwanzarterie wird der Manschettendruck kontinuierlich reduziert. Die Wiederkehr der Pulswellen bei Druckablassen wird automatisch als systolischer Blutdruck erkannt und ausgedruckt (Bühler, R. er al." Microprocessor-based automation of blood pressure measurement in the conscious rat. Proceedings of the 4th international symposium on rats with spontaneous hypertension and related studies, Rascher, R. et al. (Eds.), Schattauer Verlag, Stuttgart, New York, 1982, S. 410-413). Pulssignale und Druckverlauf werden zur Auswertung graphisch aufgezeichnet.
Zur Gewöhnung an den Meßvorgang werden die Tiere vor Substanzprüfung 14 Tage trainiert. In der zweiten Trainingswoche werden Blutdruck-Vorwerte erhoben. Tiergruppen, die Substanz erhalten, werden gegen eine Kontrollgruppe geprüft.
In der anschließenden Tabelle werden die untersuchten Verbindungen durch laufende Nummern gekennzeichnet, die mit den jewiligen Beispielnummern übereinstimmen.
Tabelle I gibt für die Vertreter der erfindungsgemäßen Verbindungen die prozentuale Senkung des Blutdrucks (BP) nach oraler Verabreichung bei der Ratte wieder.

[1] = 2h after dosing, mean of days 1+4, male SHR/N/Ibm/Bm rats, N=6, read-out: BP (% Änderung vs. Kontrolle), Mittelwert für Meßzeitpunkte: Stunden nach Gabe (Tage) 2h (1.+4.Tag)
[2] = 6h after dosing, mean of days 1-4, male SHR/N/Ibm/Bm rats, N=6, read-out: BP (% Änderung vs. Kontrolle), Mittelwert für Meßzeitpunkte: Stunden nach Gabe (Tage) 6h (1.-4.Tag)
[3] = 24h after dosing, mean of days 1+3, male SHR/N/Ibm/Bm rats, N=6, read-out: BP (% Änderung vs. Kontrolle), Mittelwert für Meßzeitpunkte: Stunden nach Gabe (Tage) 24h (1.+3.Tag)

Row | SMILES | change in vivo at 10 µmol/kg [1] [%] | change in vivo at 10 µmol/kg [2] [%] | change in vivo at 10 µmol/kg [3] [%] | change in vivo at 25 µmol/kg [1] [%] | change in vivo at 25 µmol/kg [2] [%] | change in vivo at 25 µmol/kg [3] [%] | further results
1 | CC1=C(C(=O)OCCCN2CCN(c3ccc4c(c3)OCO4)CC2)C(c2cccc([N+](=O)[O-])c2)C(C(=O)O[C@@H]2C[C@H](C)CC[C@H]2C(C)C)=C(C)N1 (single isomer, unassigned) [Beispiel 16, 1,4-Dihydro-2,6-dimethyl-4-(3-nitrophenyl)-pyridin-3,5-dicarbonsäure-3-(-)-menthyl-5-{3-[4-(3,4-methylendioxyphenyl)-1-piperazinyt]-propyl}ester-fumarat] | -21 | -21 | -7 | – | – | – | –
2 | CC1=C(C(=O)OCCN2CCN(c3ccccc3)CC2)C(c2cccc([N+](=O)[O-])c2)C(C(=O)O[C@@H]2C[C@H](C)CC[C@H]2C(C)C)=C(C)N1 (single isomer, unassigned) [Beispiel 4b, 1,4-Dihydro-2,6-dimethyl-4-(3-nitrophenyl)-pyridin-3,5-dicarbonsäure-3-(-)-menthyl-5-[2-(4-phenyl-1-piperazinyl)-ethyl]ester-fumarat] | – | – | – | – | – | – | change in vivo at 5 µmol/kg [1]: -18%; change in vivo at 5 µmol/kg [2]: -16%; change in vivo at 5 µmol/kg [3]: 4%
3 | COc1ccccc1N1CCN(CCCOC(=O)C2=C(C)NC(C)=C(C(=O)O[C@@H]3C[C@H](C)CC[C@H]3C(C)C)C2c2cccc([N+](=O)[O-])c2)CC1 (stereo partly drawn) [Beispiel 3a, 1,4-Dihydro-2,6-dimethyl-4-(3-nitrophenyl)-pyridin-3,5-dicarbonsäure-3-(-)-menthyl-5-{3-[4-(2-methoxyphenyl)-1-piperazinyl]-propyl}-ester-fumarat] | – | – | – | -46 | -42 | -15 | –
4 | CC1=C(C(=O)OCCN2CCN(c3ccccn3)CC2)C(c2cccc([N+](=O)[O-])c2)C(C(=O)O[C@@H]2C[C@H](C)CC[C@H]2C(C)C)=C(C)N1 (stereo partly drawn) [Beispiel 5a, 1,4-Dihydro-2,6-dimethyl-4-(3-nitropheny)-pyridin-3,5-dicarbonsäure-3-(-)-menthyl-5-{2-[4-(2-pyridyl)-1-piperazinyl]-ethyl}-ester-fumarat] | -29 | -11 | -3 | – | – | – | –
5 | CCOc1ccccc1N1CCN(CCCOC(=O)C2=C(C)NC(C)=C(C(=O)O[C@@H]3C[C@H](C)CC[C@H]3C(C)C)C2c2cccc(Cl)c2Cl)CC1 (single isomer, unassigned) [Beispiel 22, 4-(2,3-Dichlorphenyl)-1,4-dihydro-2,6-dimethyl-pyridin-3,5-dicarbonsäure-3-(-)-menthyl-5-{3-[4-(2-ethoxyphenyl)-1-piperazinyl]-propyl}ester-fumarat] | – | – | – | -46 | -55 | -43 | –
6 | CC1=C(C(=O)OCCCN2CCN(c3ccccc3)CC2)C(c2cccc([N+](=O)[O-])c2)C(C(=O)O[C@@H]2C[C@H](C)CC[C@H]2C(C)C)=C(C)N1 (single isomer, unassigned) [Beispiel 10, 1,4-Dihydro-2,6-dimethyl-4-(3-nitrophenyl)-pyridin-3,5-dicarbonsäure-3-(-)-menthyl-5-[3-(4-phenyl-1-piperazinyl)-propyl]-ester-fumarat] | – | – | – | -34 | -34 | -6 | –
7 | CC1=C(C(=O)OCCCN2CCN(c3cccc(C(F)(F)F)c3)CC2)C(c2cccc([N+](=O)[O-])c2)C(C(=O)O[C@@H]2C[C@H](C)CC[C@H]2C(C)C)=C(C)N1 (single isomer, unassigned) [Beispiel 14, 1,4-Dihydro-2,6-dimethyl-4-(3-nitrophenyl)-pyridin-3,5-dicarbonsäure-3-(-)-menthyl-5-{3-[4-(3-trifluormethylphenyl}-1-piperazinyl]-propyl}-ester-fumarat] | – | – | – | -42 | -43 | -21 | –
8 | CC1=C(C(=O)OCCCN2CCC(c3ccccc3)CC2)C(c2cccc([N+](=O)[O-])c2)C(C(=O)O[C@@H]2C[C@H](C)CC[C@H]2C(C)C)=C(C)N1 (single isomer, unassigned) [Beispiel 2b, 1,4-Dihydro-2,6-dimethyl-4-(3-nitrophenyl)-pyridin-3,5-dicarbonsäure-3-(-)-menthyl-5-[3-(4-phenylpiperidyl-1)-propyl]-ester-hydrochlorid] | – | – | – | -36 | -33 | -16 | –
9 | CC1=C(C(=O)OCCCN2CCC(c3ccccc3)CC2)C(c2cccc([N+](=O)[O-])c2)C(C(=O)O[C@@H]2C[C@H](C)CC[C@H]2C(C)C)=C(C)N1 (stereo partly drawn) [Beispiel 2a, 1,4-Dihydro-2,6-dimethyl-4-(3-nitrophenyl)-pyridin-3,5-dicarbonsäure-3-(-)-menthyl-5-[3-(4-phenylpiperidyl-1)-propyl]-ester-hydrochlorid] | – | – | – | -25 | -24 | -16 | –
10 | CC1=C(C(=O)OCCN2CCN(c3ccccn3)CC2)C(c2cccc([N+](=O)[O-])c2)C(C(=O)O[C@@H]2C[C@H](C)CC[C@H]2C(C)C)=C(C)N1 (single isomer, unassigned) [Beispiel 5b, 1,4-Dihydro-2,6-dimethyl-4-(3-nitropheny)-pyridin-3,5-dicarbonsäure-3-(-)-menthyl-5-{2-[4-(2-pyridyl)-1-piperazinyl]-ethyl}-ester-fumarat] | -20 | -12 | -10 | – | – | – | –
11 | CC1=C(C(=O)OCCCN2CCN(c3ccccc3C)CC2)C(c2cccc([N+](=O)[O-])c2)C(C(=O)O[C@@H]2C[C@H](C)CC[C@H]2C(C)C)=C(C)N1 (single isomer, unassigned) [Beispiel 17, 1,4-Dihydro-2,6-dimethyl-4-(3-nitrophenyl)-pyridin-3,5-dicarbonsäure-3-(-)-menthyl-5-{3-[4-(2-tolyl)-1-piperazinyl]-propyl}-ester-fumarat] | -17 | -14 | -3 | – | – | – | –
12 | CC1=C(C(=O)OCCCN2CCN(c3ccccn3)CC2)C(c2cccc([N+](=O)[O-])c2)C(C(=O)O[C@@H]2C[C@H](C)CC[C@H]2C(C)C)=C(C)N1 (single isomer, unassigned) [Beispiel 12, 1,4-Dihydro-2,6-dimethyl-4-(3-nitrophenyl)-pyridin-3,5-dicarbonsäure-3-(-)-menthyl-5-{3-[4-(2-pyridyl)-1-piperazinyl]-propyl}-ester-fumarat] | -17 | -20 | -1 | – | – | – | –
13 | COc1ccccc1N1CCN(CCCOC(=O)C2=C(C)NC(C)=C(C(=O)O[C@@H]3C[C@H](C)CC[C@H]3C(C)C)C2c2cccc([N+](=O)[O-])c2)CC1 (single isomer, unassigned) [Beispiel 3b, 1,4-Dihydro-2,6-dimethyl-4-(3-nitrophenyl)-pyridin-3,5-dicarbonsäure-3-(-)-menthyl-5-{3-[4-(2-methoxyphenyl)-1-piperazinyl]-propyl}-ester-fumarat] | – | – | – | -23 | -36 | -17 | –
